In ChEMBL document CHEMBL1201862, “PubChem BioAssay data set” (2004):
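1) Cells in 96-well plates. 2) Compound, 48 h, 5 concentrations. 3) Linear interpolation between surrounding doses. 4) Unreached endpoint = highest concentration. Here, GI50 denotes the concentration required for 50% inhibition of growth.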 Activity calls are given as the source filed them. Cut-off read from the data, not from the text of the source: active = GI50 up to about 1.1 µM and inactive = higher.

Legend:
Assay in all cases: inhibition of tumour cell growth, NCI panel, 48 h
A549 = system: A549
CCRF-CEM = system: CCRF-CEM
COLO 205 = system: COLO 205
HCC 2998 = system: HCC 2998
HL-60 = system: HL-60
Hs-578T = system: Hs-578T
IGROV-1 = system: IGROV-1
MCF7 = system: MCF7
Malme-3M = system: Malme-3M
NCI/ADR-RES = system: NCI/ADR-RES
OVCAR-4 = system: OVCAR-4
OVCAR-8 = system: OVCAR-8
PC-3 = system: PC-3
RPMI-8226 = system: RPMI-8226
SF-295 = system: SF-295
SK-MEL-2 = system: SK-MEL-2
SK-OV-3 = system: SK-OV-3
TK-10 = system: TK-10
UACC-257 = system: UACC-257
UO-31 = system: UO-31

Measured: GI50

COC(=O)c1c(OC(C)=O)ccc2c1c1c(OC(C)=O)c3ccccc3c(OC(C)=O)c1n2Cc1cc(OC)cc(OC)c1
inactive: A549 6 µM | CCRF-CEM 6.76 µM | COLO 205 26.1 µM | HCC 2998 2.56 µM | HL-60 7.78 µM | Hs-578T 14.2 µM | IGROV-1 9.1 µM | MCF7 26.1 µM | Malme-3M 12 µM | NCI/ADR-RES 5.78 µM | OVCAR-4 4.41 µM | OVCAR-8 4.93 µM | PC-3 4.66 µM | RPMI-8226 3.94 µM | SF-295 18.2 µM | SK-MEL-2 3.31 µM | SK-OV-3 9.68 µM | TK-10 66.7 µM | UACC-257 25.7 µM | UO-31 6.76 µM
